Data on 4 compounds can be found in patent US4315941A, “Urazole analogs of prostaglandin derivatives” (Beecham Group Limited, priority 1979, dated 1982).

This assay has as its system 5-hydroxytryptamine or histamine induced bronchoconstriction. In words: Bronchodilation activity: inhibition of 5-hydroxytryptamine or histamine induced bronchoconstriction in the anaesthetised artificially respired guinea-pig (Konzett-Rossler preparation). In kind it is in vivo, guinear-pig. The following applies: Cavia porcellus, iv, 5-hydroxytryptamine or histamine induced bronchoconstriction (Konzett-Rossler). From the text:
The compounds were examined for their ability to inhibit 5-hydroxytryptamine or histamine induced bronchoconstriction in the anaesthetised artificially respired guinear-pig (Konzett-Rossler preparation).
For the compound `CCCCC(C)C(C)(O)CCn1c(=O)n(C)c(=O)n1CCCCCCCCC(C)O` (stereo not shown) [Compound 1, 1-(9'-Hydroxydecyl)-2-(3"-hydroxy-3",4"-dimethyloctyl)-4-methyl-1,2,4-triazolidine-3,5-dione], the 50% effect level (ED50) was put at a dose of 0.02 mg/kg.
The compound `CCCCC(C)C(C)(O)CCn1c(=O)n(C)c(=O)n1C/C=C\CCCCC(C)O` (stereo not shown) [Compound 3] came in with a 50% effective dose (ED50) of 0.0175 mg/kg.
Compound `CCCCCCC(C)(O)CCn1c(=O)n(C)c(=O)n1CCCCCCCC(C)O` (stereo not shown) [Compound 4] showed an ED50 of 0.0042 mg/kg.
Compound `CC(O)CCCC/C=C\Cn1c(=O)n(C)c(=O)n1CCC(C)(O)C1CCCCC1` (stereo not shown) [Compound 7] had an ED50 of 0.16 mg/kg.
